The source of these data is US20230355626A1, “INHIBITORS OF HUMAN IMMUNODEFICIENCY VIRUS REPLICATION” (VIIV HEALTHCARE UK (NO.5) LIMITED, priority 2020, published 2023).

One data set relates to recombinant NL4-3 virus. The data set is described as follows: HIV cell culture assay (antiviral activity, luciferase readout in infected MT-2 cells). In kind it is cell-based. To be noted: Human immunodeficiency virus 1, NL43, MT2. As to the method:
HIV cell culture assay—MT-2 cells, 293T cells and the proviral DNA clone of NL4-3 virus were obtained from the NIH AIDS Research and Reference Reagent Program. MT-2 cells were propagated in RPMI 1640 media supplemented with 10% heat inactivated fetal bovine serum (FBS), 100 μg/ml penicillin G and up to 100 units/mL streptomycin. The 293T cells were propagated in DMEM media supplemented with 10% heat inactivated FBS, 100 μg/mL penicillin G and 100 μg/mL streptomycin. A recombinant NL4-3 proviral clone, in which a section of the nef gene was replaced with the Renilla luciferase gene, was used to make the reference virus used in these studies. The recombinant virus was prepared through transfection of the recombinant NL4-3 proviral clone into 293T cells using Transit-293 Transfection Reagent from Mirus Bio LLC (Madison, WI). Supernatant was harvested after 2-3 days and the amount of virus present was titered in MT-2 cells using luciferase enzyme activity as a marker by measuring luciferase enzyme activity. Luciferase was quantitated using the EnduRen Live Cell Substrate from Promega (Madison, WI). Antiviral activities of compounds toward the recombinant virus were quantified by measuring luciferase activity in MT-2 cells infected for 4-5 days with the recombinant virus in the presence of serial dilutions of the compound.
The 50% effective concentration (EC50) was calculated by using the exponential form of the median effect equation where (Fa)=1/[1+(ED50/drug conc.)m] (Johnson VA, Byington RT. Infectivity Assay. In Techniques in HIV Research. ed. Aldovini A, Walker BD. 71-76. New York: Stockton Press.1990). Curve fitting and analysis were performed with ActivityBase XE Runner software version 9.1.0.4 using model 203 (ID Business Solutions, LTD, Guildford, UK).

The nature of data set [1]: Compound cytotoxicity, XTT-based colorimetric assay. Format: cell-based. The conditions noted are these: human; uninfected MT2 cells, day 4, XTT assay. The procedure: Compound cytotoxicity and the corresponding CC50 values were determined using the same protocol as described in the antiviral assay except that uninfected cells were used. Cytotoxicity was assessed on day 4 in uninfected MT2 cells by using an XTT (2,3-bis[2-Methoxy-4-nitro-5-sulfophenyl]-2H-tetrazolium-5-carboxyanilide inner salt)-based colorimetric assay (Sigma-Aldrich, St Louis, Mo).

For the molecule `COC(C)(C)CCOc1ccc2c(=O)n(-c3ccc(Cl)c4c(NS(C)(=O)=O)nn(C)c34)c([C@H](Cc3cc(F)cc(F)c3)NC(=O)Cn3nc(C(F)F)c4c3C(F)(F)[C@@H]3C[C@H]43)nc2n1` (atropisomer, axis not shown; (P)) [Example 15, N-((S)-1-((3P)-3-(4-chloro-1-methyl-3-(methylsulfonamido)-1H-indazol-7-yl)-7-(3-methoxy-3-methylbutoxy)-4-oxo-3,4-dihydropyrido[2,3-d]pyrimidin-2-yl)-2-(3,5-difluorophenyl)ethyl)-2-((3bS,4aR)-3-(difluoromethyl)-5,5-difluoro-3b,4,4a,5-tetrahydro-1H-cyclopropa[3,4]cyclopenta[1,2-c]pyrazol-1-yl)acetamide], the 50% effective concentration (EC50) with recombinant NL4-3 virus is 19 pM. The half-maximal cytotoxic concentration (CC50) at 4 day in data set [1] was over 500000 pM.

Turning to `COC1(CCOc2ccc3c(=O)n(-c4ccc(Cl)c5c(NS(C)(=O)=O)nn(C)c45)c([C@H](Cc4cc(F)cc(F)c4)NC(=O)Cn4nc(C(F)F)c5c4C(F)(F)[C@@H]4C[C@H]54)nc3n2)CCC1` (atropisomer, axis not shown; (P)) [Example 16, N-((S)-1-((3P,3P)-3-(4-chloro-1-methyl-3-(methylsulfonamido)-1H-indazol-7-yl)-7-(2-(1-methoxycyclobutyl)ethoxy)-4-oxo-3,4-dihydropyrido[2,3-d]pyrimidin-2-yl)-2-(3,5-difluorophenyl)ethyl)-2-((3bS,4aR)-3-(difluoromethyl)-5,5-difluoro-3b,4,4a,5-tetrahydro-1H-cyclopropa[3,4]cyclopenta[1,2-c]pyrazol-1-yl)acetamide], in the data set with recombinant NL4-3 virus, the half-maximal effective concentration (EC50) came to 30 pM. The molecule also had a cytotoxic concentration (CC50) at 4 day in data set [1] of over 100000 pM.

In the case of `COCCCCCOc1ccc2c(=O)n(-c3ccc(Cl)c4c(NS(C)(=O)=O)nn(C)c34)c([C@H](Cc3cc(F)cc(F)c3)NC(=O)Cn3nc(C(F)F)c4c3C(F)(F)[C@@H]3C[C@H]43)nc2n1` (atropisomer, axis not shown; (P)) [Example 17, N-((S)-1-((3P)-3-(4-chloro-1-methyl-3-(methylsulfonamido)-1H-indazol-7-yl)-7-((5-methoxypentyl)oxy)-4-oxo-3,4-dihydropyrido[2,3-d]pyrimidin-2-yl)-2-(3,5-difluorophenyl)ethyl)-2-((3bS,4aR)-3-(difluoromethyl)-5,5-difluoro-3b,4,4a,5-tetrahydro-1H-cyclopropa[3,4]cyclopenta[1,2-c]pyrazol-1-yl)acetamide], in the data set on recombinant NL4-3 virus, the EC50 is 46 pM. This molecule also registered a 50% cytotoxic concentration (CC50) at 4 day in data set [1] of over 100000 pM.

As for `Cn1nc(NS(C)(=O)=O)c2c(Cl)ccc(-n3c([C@H](Cc4cc(F)cc(F)c4)NC(=O)Cn4nc(C(F)F)c5c4C(F)(F)[C@@H]4C[C@H]54)nc4nc(OCC(F)(F)C(F)(F)F)ccc4c3=O)c21` (atropisomer, axis not shown; (P)) [Example 18, N-(1-((3P,3P)-3-(4-chloro-1-methyl-3-(methylsulfonamido)-1H-indazol-7-yl)-4-oxo-7-(2,2,3,3,3-pentafluoropropoxy)-3,4-dihydropyrido[2,3-d]pyrimidin-2-yl)-2-(3,5-difluorophenyl)ethyl)-2-((3bS,4aR)-3-(difluoromethyl)-5,5-difluoro-3b,4,4a,5-tetrahydro-1H-cyclopropa[3,4]cyclopenta[1,2-c]pyrazol-1-yl)acetamide], in the data set on recombinant NL4-3 virus, the 50% effective concentration (EC50) was determined as 31 pM. In addition, in data set [1], the CC50 at 4 day is over 100000 pM.

For `Cn1nc(NS(C)(=O)=O)c2c(Cl)ccc(-n3c([C@H](Cc4cc(F)cc(F)c4)NC(=O)Cn4nc(C(F)F)c5c4C(F)(F)[C@@H]4C[C@H]54)nc4nc(OCCC(F)(F)C(F)(F)F)ccc4c3=O)c21` (atropisomer, axis not shown; (P)) [Example 19, N-((S)-1-((3P)-3-(4-chloro-1-methyl-3-(methylsulfonamido)-1H-indazol-7-yl)-4-oxo-7-(3,3,4,4,4-pentafluorobutoxy)-3,4-dihydropyrido[2,3-d]pyrimidin-2-yl)-2-(3,5-difluorophenyl)ethyl)-2-((3bS,4aR)-3-(difluoromethyl)-5,5-difluoro-3b,4,4a,5-tetrahydro-1H-cyclopropa[3,4]cyclopenta[1,2-c]pyrazol-1-yl)acetamide], in the data set with recombinant NL4-3 virus, the concentration giving a half-maximal response (EC50) is 44 pM. In data set [1], this molecule displayed a CC50 at 4 day of over 100000 pM.

With `Cn1nc(NS(C)(=O)=O)c2c(Cl)ccc(-n3c([C@H](Cc4cc(F)cc(F)c4)NC(=O)Cn4nc(C(F)F)c5c4C(F)(F)[C@@H]4C[C@H]54)nc4nc(OCCOCC(F)(F)C(F)(F)F)ccc4c3=O)c21` (atropisomer, axis not shown; (P)) [Example 20, N-((S)-1-((3P)-3-(4-chloro-1-methyl-3-(methylsulfonamido)-1H-indazol-7-yl)-4-oxo-7-(2-(2,2,3,3,3-pentafluoropropoxy)ethoxy)-3,4-dihydropyrido[2,3-d]pyrimidin-2-yl)-2-(3,5-difluorophenyl)ethyl)-2-((3bS,4aR)-3-(difluoromethyl)-5,5-difluoro-3b,4,4a,5-tetrahydro-1H-cyclopropa[3,4]cyclopenta[1,2-c]pyrazol-1-yl)acetamide], the concentration for a half-maximal effect (EC50) in the data set on recombinant NL4-3 virus was 45 pM. In addition, the CC50 at 4 day in data set [1] is over 100000 pM.

In the case of `Cn1nc(NS(C)(=O)=O)c2c(Cl)ccc(-n3c([C@H](Cc4cc(F)cc(F)c4)NC(=O)Cn4nc(C(F)F)c5c4C(F)(F)[C@@H]4C[C@H]54)nc4nc(OCC5(C(F)(F)F)CC5)ccc4c3=O)c21` (atropisomer, axis not shown; (P)) [Example 21, N-((S)-1-((3P)-3-(4-chloro-1-methyl-3-(methylsulfonamido)-1H-indazol-7-yl)-4-oxo-7-((1-(trifluoromethyl)cyclopropyl)methoxy)-3,4-dihydropyrido[2,3-d]pyrimidin-2-yl)-2-(3,5-difluorophenyl)ethyl)-2-((3bS,4aR)-3-(difluoromethyl)-5,5-difluoro-3b,4,4a,5-tetrahydro-1H-cyclopropa[3,4]cyclopenta[1,2-c]pyrazol-1-yl)acetamide], the concentration giving a half-maximal response (EC50) with recombinant NL4-3 virus was found to be 46 pM. Moreover, the CC50 at 4 day in data set [1] was over 500000 pM.

For `Cn1nc(NS(C)(=O)=O)c2c(Cl)ccc(-n3c([C@H](Cc4cc(F)cc(F)c4)NC(=O)Cn4nc(C(F)F)c5c4C(F)(F)[C@@H]4C[C@H]54)nc4nc(OCc5cccc(C(F)(F)F)n5)ccc4c3=O)c21` (atropisomer, axis not shown; (P)) [Example 22, N-((S)-1-((3P)-3-(4-chloro-1-methyl-3-(methylsulfonamido)-1H-indazol-7-yl)-4-oxo-7-((6-(trifluoromethyl)pyridin-2-yl)methoxy)-3,4-dihydropyrido[2,3-d]pyrimidin-2-yl)-2-(3,5-difluorophenyl)ethyl)-2-((3bS,4aR)-3-(difluoromethyl)-5,5-difluoro-3b,4,4a,5-tetrahydro-1H-cyclopropa[3,4]cyclopenta[1,2-c]pyrazol-1-yl)acetamide], the half-maximal effective concentration (EC50) in the data set on recombinant NL4-3 virus was 55 pM. Besides, the CC50 at 4 day in data set [1] was over 100000 pM.

As usually defined, the EC50 is the concentration giving half of the maximal effect. As usually defined, the CC50 is the concentration giving 50% cytotoxicity. High values mean lower toxicity to the cells, low ones greater toxicity to the cells.
